# Experimental data taken from patent US7592345B2, “Piperazine and [1,4]diazepan derivatives as NK antagonists” (Hoffmann-La Roche Inc., priority 2007, dated 2009).
# Target: T1, recombinant human NK3 receptor (Homo sapiens, UniProt P29371)
# T1 construct: expressed in transfected cells; host or cells: HEK293 cells (transient expression), membranes
# T1 sequence (P29371 1-465): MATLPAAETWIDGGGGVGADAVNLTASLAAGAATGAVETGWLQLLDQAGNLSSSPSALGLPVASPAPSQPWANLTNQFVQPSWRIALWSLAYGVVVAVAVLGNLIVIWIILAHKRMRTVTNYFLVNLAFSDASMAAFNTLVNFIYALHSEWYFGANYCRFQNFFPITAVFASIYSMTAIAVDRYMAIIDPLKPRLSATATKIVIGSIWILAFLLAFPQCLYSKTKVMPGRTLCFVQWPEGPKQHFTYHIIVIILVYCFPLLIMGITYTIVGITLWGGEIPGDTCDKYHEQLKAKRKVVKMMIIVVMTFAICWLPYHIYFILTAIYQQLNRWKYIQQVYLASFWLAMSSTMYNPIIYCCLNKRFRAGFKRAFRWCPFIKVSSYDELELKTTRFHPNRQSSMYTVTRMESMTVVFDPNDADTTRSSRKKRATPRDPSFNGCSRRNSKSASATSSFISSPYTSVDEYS
# Assay: [3H]SR142801 competition binding assay
# Conditions: [3H]SR142801, membranes from HEK293 cells transiently expressing recombinant human NK3 receptor; read-out: hNK3 Ki
# Protocol: [^3H]SR142801 Competition Binding Assay
# hNK3 receptor binding experiment were performed using [^3H]SR142801 (Catalog No. TRK1035, specific activity: 74.0 Ci/mmol, Amersham, GE Healthcare UK limited, Buckinghamshire, UK) and membrane isolated from HEK293 cells transiently expressing recombinant human NK3 receptor. After thawing, the membrane homogenates were centrifuged at 48,000×g for 10 min at 4° C., the pellets were resuspended in the 50 mM Tris-HCl, 4 mM MnCl2, 1 μM phosphoramidon, 0.1% BSA binding buffer at pH 7.4 to a final assay concentration of 5 μg protein/well. For inhibition experiments, membranes were incubated with [^3H]SR142801 at a concentration equal to KD value of radioligand and 10 concentrations of the inhibitory compound (0.0003-10 μM) (in a total reaction volume of 500 μl) for 75 min at room temperature (RT). At the end of the incubation, membranes were filtered onto unitfilter (96-well white microplate with bonded GF/C filter preincubated 1 h in 0.3% PEI+0.3% BSA, Packard BioScience, Meriden, Conn.) with a Filtermate 196 harvester (Packard BioScience) and washed 4 times with ice-cold 50 mM Tris-HCl, pH 7.4 buffer. Nonspecific binding was measured in the presence of 10 μM SB222200 for both radioligands. The radioactivity on the filter was counted (5 min) on a Packard Top-count microplate scintillation counter with quenching correction after addition of 45 μl of microscint 40 (Canberra Packard S. A., Zürich, Switzerland) and shaking for 1 h. Inhibition curves were fitted according to the Hill equation: y=100/(1+(x/IC50)^nH), where nH=slope factor using Excel-fit 4 software (Microsoft). IC50 values were derived from the inhibition curve and the affinity constant (Ki) values were calculated using the Cheng-Prussoff equation Ki=IC50/(1+[L]/KD) where [L] is the concentration of radioligand and KD is its dissociation constant at the receptor, derived from the saturation isotherm. All experiments were performed in duplicate and the mean±standard error (SEM) of the individual Ki values was calculated.
row,Compound,Ki [µM]
1,"CN(Cc1cccc(F)c1)C(=O)C(CCN1CCN(S(C)(=O)=O)CC1)c1ccc(Cl)c(Cl)c1 (centres unmarked) [Example 7, 2-(3,4-Dichloro-phenyl)-N-(3-fluoro-benzyl)-4-(4-methanesulfonyl-piperazin-1-yl)-N-methyl-butyramide]",0.388
2,"CC(CCN1CCN(S(C)(=O)=O)CC1)(C(=O)NCc1ccc(C#N)cc1)c1ccc(Cl)c(Cl)c1 (centres unmarked) [Example 18, N-(4-Cyano-benzyl)-2-(3,4-dichloro-phenyl)-4-(4-methanesulfonyl-piperazin-1-yl)-2-methyl-butyramide]",0.434
3,"COc1cc(CN(C)C(=O)C(C)(CCN2CCN(S(C)(=O)=O)[C@H](C)C2)c2ccc(Cl)c(Cl)c2)ccc1OC(F)F (stereo partly drawn) [Example 35, 2-(3,4-Dichloro-phenyl)-N-(4-difluoromethoxy-3-methoxy-benzyl)-4-((R)-4-methanesulfonyl-3-methyl-piperazin-1-yl)-2,N-dimethyl-butyramide]",0.216
4,"C[C@H]1CN(CCC(C)(C(=O)NCc2ccc(N(C)C)cc2)c2ccc(Cl)c(Cl)c2)CCN1S(C)(=O)=O (stereo partly drawn) [Example 68, 2-(3,4-Dichloro-phenyl)-N-(4-dimethylamino-benzyl)-4-((S)-4-methanesulfonyl-3-methyl-piperazin-1-yl)-2-methyl-butyramide]",0.734
5,"COc1ccc(C(NC(=O)C(C)(CCN2CCN(S(C)(=O)=O)CC2)c2ccc(Cl)c(Cl)c2)C2CC2)cc1 (centres unmarked) [Example 15, N-[Cyclopropyl-(4-methoxy-phenyl)-methyl]-2-(3,4-dichloro-phenyl)-4-(4-methanesulfonyl-piperazin-1-yl)-2-methyl-butyramide]",0.234
6,"CN(Cc1ccc(C(F)(F)F)nc1)C(=O)C(C)(CCN1CCCN(S(C)(=O)=O)CC1)c1ccc(Cl)c(Cl)c1 (centres unmarked) [Example 125, 2-(3,4-Dichloro-phenyl)-4-(4-methanesulfonyl-[1,4]diazepan-1-yl)-2,N-dimethyl-N-(6-trifluoromethyl-pyridin-3-ylmethyl)-butyramide]",0.275
7,"C[C@H]1CN(CCC(C)(C(=O)N(C)Cc2ccc(C(F)(F)F)nc2)c2ccc(Cl)c(Cl)c2)CCN1S(C)(=O)=O (stereo partly drawn) [Example 90, 2-(3,4-Dichloro-phenyl)-4-((S)-4-methanesulfonyl-3-methyl-piperazin-1-yl)-2,N-dimethyl-N-(6-trifluoromethyl-pyridin-3-ylmethyl)-butyramide]",0.525
8,"C[C@H]1CN(CCC(C)(C(=O)N(C)Cc2ccc(-c3ccncc3)cc2)c2ccc(Cl)c(Cl)c2)CCN1S(C)(=O)=O (stereo partly drawn) [Example 61, 2-(3,4-Dichloro-phenyl)-4-((S)-4-methanesulfonyl-3-methyl-piperazin-1-yl)-2,N-dimethyl-N-(4-pyridin-4-yl-benzyl)-butyramide]",0.247
9,"C[C@@H]1CN(CCC(C)(C(=O)NCc2cc(F)ccc2C(F)(F)F)c2ccc(Cl)c(Cl)c2)CCN1S(C)(=O)=O (stereo partly drawn) [Example 44, 2-(3,4-Dichloro-phenyl)-N-(5-fluoro-2-trifluoromethyl-benzyl)-4-((R)-4-methanesulfonyl-3-methyl-piperazin-1-yl)-2-methyl-butyramide]",0.212
10,"C[C@@H]1CN(CCC(C)(C(=O)NCc2ccc(C(F)(F)F)nc2)c2ccc(Cl)c(Cl)c2)CCN1S(C)(=O)=O (stereo partly drawn) [Example 92, 2-(3,4-Dichloro-phenyl)-4-((R)-4-methanesulfonyl-3-methyl-piperazin-1-yl)-2-methyl-N-(6-trifluoromethyl-pyridin-3-ylmethyl)-butyramide]",0.582

# Next, values leading:
row,Ki [µM],Compound
1,0.0175,"C[C@@H]1CN(CCC(C)(C(=O)NCc2ccc(Cl)c(C(F)(F)F)c2)c2ccc(Cl)c(Cl)c2)CCN1S(C)(=O)=O (stereo partly drawn) [Example 54, N-(4-Chloro-3-trifluoromethyl-benzyl)-2-(3,4-dichloro-phenyl)-4-((R)-4-methanesulfonyl-3-methyl-piperazin-1-yl)-2-methyl-butyramide]"
2,0.0125,"C[C@H]1CN(CCC(C)(C(=O)N(C)Cc2ccc(Cl)c(Cl)c2)c2ccc(Cl)c(Cl)c2)CCN1S(C)(=O)=O (stereo partly drawn) [Example 71, N-(3,4-Dichloro-benzyl)-2-(3,4-dichloro-phenyl)-4-((S)-4-methanesulfonyl-3-methyl-piperazin-1-yl)-2,N-dimethyl-butyramide]"
3,0.0146,"C[C@@H]1CN(CCC(C)(C(=O)NCc2cccc(OC(F)(F)F)c2)c2ccc(Cl)c(Cl)c2)CCN1S(C)(=O)=O (stereo partly drawn) [Example 51, 2-(3,4-Dichloro-phenyl)-4-((R)-4-methanesulfonyl-3-methyl-piperazin-1-yl)-2-methyl-N-(3-trifluoromethoxy-benzyl)-butyramide]"
4,0.0571,"C[C@H]1CN(CCC(C)(C(=O)NCc2ccc(OC(F)(F)F)cc2)c2ccc(Cl)c(Cl)c2)CCN1S(C)(=O)=O (stereo partly drawn) [Example 83, 2-(3,4-Dichloro-phenyl)-4-((S)-4-methanesulfonyl-3-methyl-piperazin-1-yl)-2-methyl-N-(4-trifluoromethoxy-benzyl)-butyramide]"
5,0.0671,"CC(CCN1CCN(S(C)(=O)=O)CC1)(C(=O)NCc1ccc(C(F)(F)F)c(F)c1)c1ccc(Cl)c(Cl)c1 (centres unmarked) [Example 20, 2-(3,4-Dichloro-phenyl)-N-(3-fluoro-4-trifluoromethyl-benzyl)-4-(4-methanesulfonyl-piperazin-1-yl)-2-methyl-butyramide]"
6,0.112,"C[C@H]1CN(CC[C@@](C)(C(=O)NCc2ccc(Cl)c(Cl)c2)c2ccc(Cl)c(Cl)c2)CCN1S(C)(=O)=O (single isomer, unassigned) [Example 94, (R or S)—N-(3,4-Dichloro-benzyl)-2-(3,4-dichloro-phenyl)-4-((R)-4-methanesulfonyl-3-methyl-piperazin-1-yl)-2-methyl-butyramide]"
7,0.0299,"CN(Cc1ccc(Cl)cc1)C(=O)C(C)(CCN1CCCN(S(C)(=O)=O)CC1)c1ccc(Cl)c(Cl)c1 (centres unmarked) [Example 97, N-(4-Chloro-benzyl)-2-(3,4-dichloro-phenyl)-4-(4-methanesulfonyl-[1,4]diazepan-1-yl)-2,N-dimethyl-butyramide]"
8,0.0464,"C[C@@H]1CN(CCC(C)(C(=O)NCc2ccc(Cl)c(F)c2)c2ccc(Cl)c(Cl)c2)CCN1S(C)(=O)=O (stereo partly drawn) [Example 52, N-(4-Chloro-3-fluoro-benzyl)-2-(3,4-dichloro-phenyl)-4-((R)-4-methanesulfonyl-3-methyl-piperazin-1-yl)-2-methyl-butyramide]"
9,0.0774,"Cc1ccc(CN(C)C(=O)C(C)(CCN2CCN(S(C)(=O)=O)CC2)c2ccc(Cl)c(Cl)c2)cc1 (centres unmarked) [Example 22, 2-(3,4-Dichloro-phenyl)-4-(4-methanesulfonyl-piperazin-1-yl)-2,N-dimethyl-N-(4-methyl-benzyl)-butyramide]"
10,0.209,"CC(CCN1CCCN(S(C)(=O)=O)CC1)(C(=O)NCc1cc(C(F)(F)F)cc(C(F)(F)F)c1)c1ccc(Cl)c(Cl)c1 (centres unmarked) [Example 107, N-(3,5-Bis-trifluoromethyl-benzyl)-2-(3,4-dichloro-phenyl)-4-(4-methanesulfonyl-[1,4]diazepan-1-yl)-2-methyl-butyramide]"
11,0.0067,"CN(Cc1ccc(Cl)c(C(F)(F)F)c1)C(=O)C(C)(CCN1CCCN(S(C)(=O)=O)CC1)c1ccc(Cl)c(Cl)c1 (centres unmarked) [Example 111, N-(4-Chloro-3-trifluoromethyl-benzyl)-2-(3,4-dichloro-phenyl)-4-(4-methanesulfonyl-[1,4]diazepan-1-yl)-2,N-dimethyl-butyramide]"
12,0.0399,"CC(CCN1CCCN(S(C)(=O)=O)CC1)(C(=O)NCc1ccc(Cl)c(Cl)c1)c1ccc(Cl)c(Cl)c1 (centres unmarked) [Example 114, N-(3,4-Dichloro-benzyl)-2-(3,4-dichloro-phenyl)-4-(4-methanesulfonyl-[1,4]diazepan-1-yl)-2-methyl-butyramide]"
13,0.183,"CC(CCN1CCCN(S(C)(=O)=O)CC1)(C(=O)NCc1cccc(OC(F)F)c1)c1ccc(Cl)c(Cl)c1 (centres unmarked) [Example 115, 2-(3,4-Dichloro-phenyl)-N-(3-difluoromethoxy-benzyl)-4-(4-methanesulfonyl-[1,4]diazepan-1-yl)-2-methyl-butyramide]"
